Measured values published in patent publication US20050119253A1, “Method of treating mental disorders using of D4 and 5-HT2A antagonists, inverse agonists or partial agonists” (priority 2003, published 2005).

Legend:
Assay type in all cases: binding
D2 = D2 (Homo sapiens, UniProt P14416); assay: pKi of test compounds, D2 receptor; settings: for Ki: read-out: pKi D2 (converted)
5HT1B = 5HT1B (Homo sapiens, UniProt P28222); assay: pKi of test compounds, 5HT1B receptor
5HT1E = 5HT1E (Homo sapiens, UniProt P28566); assay: pKi of test compounds, 5HT1E receptor
D4 receptor = target: T1, D4 receptor (Homo sapiens, UniProt P21917); assay: pKi of test compounds, D4 receptor; settings: D4; read-out: pKi D4 (converted)
T1 sequence (P21917 1-419): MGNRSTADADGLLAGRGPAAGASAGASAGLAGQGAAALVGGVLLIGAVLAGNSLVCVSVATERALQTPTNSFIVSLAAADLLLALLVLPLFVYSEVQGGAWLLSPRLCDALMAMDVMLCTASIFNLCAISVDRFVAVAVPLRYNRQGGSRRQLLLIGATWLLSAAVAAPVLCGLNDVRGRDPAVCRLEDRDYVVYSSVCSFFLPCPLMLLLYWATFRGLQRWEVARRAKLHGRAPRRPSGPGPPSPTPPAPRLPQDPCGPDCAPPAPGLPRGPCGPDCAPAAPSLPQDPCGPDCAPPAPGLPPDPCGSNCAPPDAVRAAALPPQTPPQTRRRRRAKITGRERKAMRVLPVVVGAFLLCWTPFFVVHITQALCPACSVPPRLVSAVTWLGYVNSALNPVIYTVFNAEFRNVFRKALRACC

5HT1D = 5HT1D (Homo sapiens, UniProt P28221); assay: pKi of test compounds, 5HT1D receptor; settings: read-out: pKi 5HT1D (converted)
D1 = D1 (Homo sapiens, UniProt P21728); assay: pKi of test compounds, D1 receptor
Alpha1A = target: T2, Alpha1A (Homo sapiens, UniProt P35348); assay: pKi of test compounds, adrenergic receptor Alpha1A
T2 sequence (P35348 1-466): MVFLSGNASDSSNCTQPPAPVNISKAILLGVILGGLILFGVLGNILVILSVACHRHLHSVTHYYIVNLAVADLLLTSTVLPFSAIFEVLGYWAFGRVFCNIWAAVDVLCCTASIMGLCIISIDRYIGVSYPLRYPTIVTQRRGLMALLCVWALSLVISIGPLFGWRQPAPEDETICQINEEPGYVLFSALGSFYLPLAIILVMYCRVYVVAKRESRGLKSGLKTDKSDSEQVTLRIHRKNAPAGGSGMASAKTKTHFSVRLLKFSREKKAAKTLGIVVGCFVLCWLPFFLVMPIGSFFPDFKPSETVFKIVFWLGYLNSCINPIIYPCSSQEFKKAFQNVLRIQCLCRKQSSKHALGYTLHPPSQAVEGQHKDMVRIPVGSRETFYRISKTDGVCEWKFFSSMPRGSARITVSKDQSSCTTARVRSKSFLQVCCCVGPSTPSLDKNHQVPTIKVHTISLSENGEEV

5-HT2A receptor = 5-HT2A receptor (Homo sapiens, UniProt P28223); assay: pKi of test compounds, 5-HT2A receptor
D3 = D3 (Homo sapiens, UniProt P35462); assay: pKi of test compounds, D3 receptor; settings: for Ki: read-out: pKi D3 (converted)
5HT1A = target: T3, 5HT1A (Homo sapiens, UniProt P08908); assay: pKi of test compounds, 5HT1A receptor
T3 sequence (P08908 1-422): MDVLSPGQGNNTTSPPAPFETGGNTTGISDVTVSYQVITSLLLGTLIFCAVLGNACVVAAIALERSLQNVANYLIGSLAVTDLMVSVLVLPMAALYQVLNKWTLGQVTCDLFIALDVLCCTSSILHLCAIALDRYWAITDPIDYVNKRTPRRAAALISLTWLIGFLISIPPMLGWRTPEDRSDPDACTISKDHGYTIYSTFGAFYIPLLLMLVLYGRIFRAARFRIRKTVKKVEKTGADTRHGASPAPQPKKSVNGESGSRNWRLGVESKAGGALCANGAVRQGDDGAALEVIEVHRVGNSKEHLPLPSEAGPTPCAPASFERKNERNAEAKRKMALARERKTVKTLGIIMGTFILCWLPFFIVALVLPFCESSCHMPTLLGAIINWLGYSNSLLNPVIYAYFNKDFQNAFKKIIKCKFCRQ

5HT2C = target: T4, 5HT2C (Homo sapiens, UniProt P28335); assay: pKi of test compounds, 5HT2C receptor
T4 sequence (P28335 33-458): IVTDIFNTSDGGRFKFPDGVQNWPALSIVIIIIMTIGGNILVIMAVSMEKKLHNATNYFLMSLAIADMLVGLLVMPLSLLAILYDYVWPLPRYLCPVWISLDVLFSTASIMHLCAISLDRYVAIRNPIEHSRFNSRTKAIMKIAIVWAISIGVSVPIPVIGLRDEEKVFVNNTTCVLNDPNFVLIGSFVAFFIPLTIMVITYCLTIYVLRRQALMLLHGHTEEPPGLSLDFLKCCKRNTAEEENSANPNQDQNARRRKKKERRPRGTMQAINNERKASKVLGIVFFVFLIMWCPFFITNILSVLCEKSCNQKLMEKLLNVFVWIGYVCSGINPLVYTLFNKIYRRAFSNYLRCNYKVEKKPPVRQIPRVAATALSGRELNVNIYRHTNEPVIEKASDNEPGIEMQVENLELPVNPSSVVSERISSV

Alpha2A = target: T5, Alpha2A (Homo sapiens, UniProt P08913); assay: pKi of test compounds, adrenergic receptor Alpha2A
T5 sequence (P08913 1-465): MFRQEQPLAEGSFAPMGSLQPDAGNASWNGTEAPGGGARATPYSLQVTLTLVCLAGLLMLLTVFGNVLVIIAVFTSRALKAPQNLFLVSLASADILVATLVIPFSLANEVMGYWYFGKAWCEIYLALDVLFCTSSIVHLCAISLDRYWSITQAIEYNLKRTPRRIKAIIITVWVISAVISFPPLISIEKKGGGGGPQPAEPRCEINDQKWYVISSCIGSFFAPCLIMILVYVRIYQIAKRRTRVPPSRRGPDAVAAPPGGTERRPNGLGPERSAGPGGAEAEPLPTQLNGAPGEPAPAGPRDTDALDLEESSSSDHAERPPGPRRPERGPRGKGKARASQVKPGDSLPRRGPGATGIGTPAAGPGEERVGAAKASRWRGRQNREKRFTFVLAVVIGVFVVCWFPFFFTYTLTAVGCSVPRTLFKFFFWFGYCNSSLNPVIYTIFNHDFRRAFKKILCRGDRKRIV

Alpha2B = Alpha2B (Homo sapiens, UniProt P18089); assay: pKi of test compounds, adrenergic receptor Alpha2B
Alpha2C = target: T6, Alpha2C (Homo sapiens, UniProt P18825); assay: pKi of test compounds, adrenergic receptor Alpha2C
T6 sequence (P18825 1-462): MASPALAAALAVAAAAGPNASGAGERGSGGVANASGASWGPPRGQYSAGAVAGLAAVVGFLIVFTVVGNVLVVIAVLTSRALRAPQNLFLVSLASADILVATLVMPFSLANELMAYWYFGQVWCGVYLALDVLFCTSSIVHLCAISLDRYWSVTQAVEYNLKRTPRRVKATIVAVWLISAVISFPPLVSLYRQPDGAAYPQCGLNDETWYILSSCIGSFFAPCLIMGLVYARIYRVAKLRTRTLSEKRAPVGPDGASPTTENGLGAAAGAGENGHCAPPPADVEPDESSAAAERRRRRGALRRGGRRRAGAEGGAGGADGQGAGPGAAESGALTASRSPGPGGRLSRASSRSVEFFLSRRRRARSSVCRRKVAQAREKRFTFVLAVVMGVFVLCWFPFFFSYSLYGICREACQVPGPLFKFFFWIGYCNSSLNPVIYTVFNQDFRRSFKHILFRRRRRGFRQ

5HT7rat = 5HT7rat (Rattus norvegicus, UniProt P32305); assay: pKi of test compounds, 5HT7 receptor
5HT2B = 5HT2B (Homo sapiens, UniProt P41595); assay: pKi of test compounds, 5HT2B receptor
Beta2 = Beta2 (Homo sapiens, UniProt P07550); assay: pKi of test compounds, adrenergic receptor Beta2
5HT6rat = 5HT6rat (Rattus norvegicus, UniProt P31388); assay: pKi of test compounds, 5HT6 receptor; settings: rat
Beta1 = Beta1 (Homo sapiens, UniProt P08588); assay: pKi of test compounds, adrenergic receptor Beta1
Beta1, sequence (P08588 whole entry): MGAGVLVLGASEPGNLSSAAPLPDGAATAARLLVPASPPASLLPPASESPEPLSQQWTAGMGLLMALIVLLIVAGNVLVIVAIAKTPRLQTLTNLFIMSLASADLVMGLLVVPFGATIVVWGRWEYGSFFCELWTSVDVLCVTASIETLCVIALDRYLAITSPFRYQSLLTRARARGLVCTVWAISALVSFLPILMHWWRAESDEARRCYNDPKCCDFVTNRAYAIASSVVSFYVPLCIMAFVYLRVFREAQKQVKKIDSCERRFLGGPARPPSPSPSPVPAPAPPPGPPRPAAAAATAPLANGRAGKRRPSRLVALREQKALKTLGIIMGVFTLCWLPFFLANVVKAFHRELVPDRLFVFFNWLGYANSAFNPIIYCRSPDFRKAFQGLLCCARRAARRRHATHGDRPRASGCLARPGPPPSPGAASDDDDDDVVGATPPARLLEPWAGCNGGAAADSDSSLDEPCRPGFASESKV

5HT1D, sequence (P28221 whole entry, species assumed): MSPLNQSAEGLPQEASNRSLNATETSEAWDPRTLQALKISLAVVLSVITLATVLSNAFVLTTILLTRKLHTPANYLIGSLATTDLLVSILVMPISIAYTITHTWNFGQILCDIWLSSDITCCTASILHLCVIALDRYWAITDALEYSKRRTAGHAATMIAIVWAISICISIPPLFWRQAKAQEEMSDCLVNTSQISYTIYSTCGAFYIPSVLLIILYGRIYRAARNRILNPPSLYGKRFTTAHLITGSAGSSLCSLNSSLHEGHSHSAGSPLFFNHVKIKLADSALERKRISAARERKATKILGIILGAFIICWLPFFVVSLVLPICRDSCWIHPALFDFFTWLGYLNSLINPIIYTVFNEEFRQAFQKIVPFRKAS
5-HT2A receptor, sequence (P28223 whole entry): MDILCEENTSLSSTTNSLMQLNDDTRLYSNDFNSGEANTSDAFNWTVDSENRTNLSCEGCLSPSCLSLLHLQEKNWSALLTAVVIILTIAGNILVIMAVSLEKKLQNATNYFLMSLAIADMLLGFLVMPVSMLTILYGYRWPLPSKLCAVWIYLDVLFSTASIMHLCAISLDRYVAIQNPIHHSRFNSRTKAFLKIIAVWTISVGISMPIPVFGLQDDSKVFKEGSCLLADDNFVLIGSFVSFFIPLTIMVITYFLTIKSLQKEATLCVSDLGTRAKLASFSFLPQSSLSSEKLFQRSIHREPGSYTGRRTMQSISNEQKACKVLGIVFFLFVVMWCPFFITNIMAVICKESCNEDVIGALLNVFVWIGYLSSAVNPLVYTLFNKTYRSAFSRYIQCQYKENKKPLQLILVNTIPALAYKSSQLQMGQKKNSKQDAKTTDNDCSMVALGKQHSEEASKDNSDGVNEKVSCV
D1, sequence (P21728 whole entry): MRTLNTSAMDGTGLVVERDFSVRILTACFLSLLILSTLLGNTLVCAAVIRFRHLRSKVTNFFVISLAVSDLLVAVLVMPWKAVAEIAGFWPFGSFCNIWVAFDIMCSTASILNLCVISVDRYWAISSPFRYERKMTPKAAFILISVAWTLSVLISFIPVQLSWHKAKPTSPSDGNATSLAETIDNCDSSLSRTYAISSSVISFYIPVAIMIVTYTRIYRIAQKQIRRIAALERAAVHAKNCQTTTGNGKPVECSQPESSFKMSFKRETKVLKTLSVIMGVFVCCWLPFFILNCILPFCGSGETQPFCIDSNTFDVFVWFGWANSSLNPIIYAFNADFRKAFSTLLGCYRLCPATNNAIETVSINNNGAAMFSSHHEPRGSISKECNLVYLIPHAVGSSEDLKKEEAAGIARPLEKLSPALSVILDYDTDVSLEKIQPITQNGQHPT
5HT1B, sequence (P28222 whole entry, species assumed): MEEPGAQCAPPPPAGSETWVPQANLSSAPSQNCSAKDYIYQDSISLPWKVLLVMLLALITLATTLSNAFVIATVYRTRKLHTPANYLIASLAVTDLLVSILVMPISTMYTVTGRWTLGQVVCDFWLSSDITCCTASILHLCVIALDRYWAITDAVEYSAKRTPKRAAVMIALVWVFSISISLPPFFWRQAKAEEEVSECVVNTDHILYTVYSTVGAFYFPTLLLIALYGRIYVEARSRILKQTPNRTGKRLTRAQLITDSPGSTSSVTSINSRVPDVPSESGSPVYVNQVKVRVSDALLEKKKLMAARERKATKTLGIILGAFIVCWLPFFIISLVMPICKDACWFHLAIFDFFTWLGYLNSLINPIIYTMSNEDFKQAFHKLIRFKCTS
D2, sequence (P14416 whole entry): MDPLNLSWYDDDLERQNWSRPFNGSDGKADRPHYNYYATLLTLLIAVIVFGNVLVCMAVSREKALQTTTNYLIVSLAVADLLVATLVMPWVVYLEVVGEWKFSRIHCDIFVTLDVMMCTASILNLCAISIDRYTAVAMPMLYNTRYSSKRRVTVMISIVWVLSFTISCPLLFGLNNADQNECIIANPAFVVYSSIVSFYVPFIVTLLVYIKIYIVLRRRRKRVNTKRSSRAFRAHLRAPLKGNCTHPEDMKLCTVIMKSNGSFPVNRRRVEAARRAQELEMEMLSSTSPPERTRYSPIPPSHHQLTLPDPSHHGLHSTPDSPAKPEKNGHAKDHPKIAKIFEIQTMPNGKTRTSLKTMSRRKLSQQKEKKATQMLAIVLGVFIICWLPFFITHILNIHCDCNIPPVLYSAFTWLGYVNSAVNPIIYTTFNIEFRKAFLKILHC
D3, sequence (P35462 whole entry): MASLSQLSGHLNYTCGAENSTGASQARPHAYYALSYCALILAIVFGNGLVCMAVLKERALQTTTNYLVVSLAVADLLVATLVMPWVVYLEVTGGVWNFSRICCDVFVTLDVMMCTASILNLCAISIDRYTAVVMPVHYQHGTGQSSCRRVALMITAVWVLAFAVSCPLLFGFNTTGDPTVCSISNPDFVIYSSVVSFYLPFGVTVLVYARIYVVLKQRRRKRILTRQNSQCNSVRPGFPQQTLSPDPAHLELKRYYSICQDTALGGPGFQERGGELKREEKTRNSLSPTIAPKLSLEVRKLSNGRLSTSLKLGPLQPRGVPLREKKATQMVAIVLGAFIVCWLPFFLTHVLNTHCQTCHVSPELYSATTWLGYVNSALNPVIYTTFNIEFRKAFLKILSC
5HT1E, sequence (P28566 whole entry, species assumed): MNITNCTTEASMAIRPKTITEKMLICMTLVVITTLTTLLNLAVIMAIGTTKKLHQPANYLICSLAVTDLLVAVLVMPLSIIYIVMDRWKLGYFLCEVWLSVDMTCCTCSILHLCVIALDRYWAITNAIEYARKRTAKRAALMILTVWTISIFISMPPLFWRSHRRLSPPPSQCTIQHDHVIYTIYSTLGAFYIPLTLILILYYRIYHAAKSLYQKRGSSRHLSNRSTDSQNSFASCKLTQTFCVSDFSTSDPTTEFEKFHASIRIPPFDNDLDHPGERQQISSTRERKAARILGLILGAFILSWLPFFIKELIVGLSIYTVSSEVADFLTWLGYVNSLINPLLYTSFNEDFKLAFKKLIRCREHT
Alpha2B, sequence (P18089 whole entry): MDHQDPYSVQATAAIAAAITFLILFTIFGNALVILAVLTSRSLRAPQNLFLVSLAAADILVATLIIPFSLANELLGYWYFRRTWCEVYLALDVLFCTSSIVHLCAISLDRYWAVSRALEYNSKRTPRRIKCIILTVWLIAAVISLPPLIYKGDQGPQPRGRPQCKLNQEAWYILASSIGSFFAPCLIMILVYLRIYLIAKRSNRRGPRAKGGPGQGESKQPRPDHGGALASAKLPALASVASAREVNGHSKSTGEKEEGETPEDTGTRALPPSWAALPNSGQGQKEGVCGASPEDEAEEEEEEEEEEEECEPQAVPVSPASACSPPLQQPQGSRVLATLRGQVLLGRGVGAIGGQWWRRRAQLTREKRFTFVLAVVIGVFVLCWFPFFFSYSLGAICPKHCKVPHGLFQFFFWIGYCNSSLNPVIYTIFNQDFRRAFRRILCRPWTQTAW
5HT6rat, sequence (P31388 whole entry): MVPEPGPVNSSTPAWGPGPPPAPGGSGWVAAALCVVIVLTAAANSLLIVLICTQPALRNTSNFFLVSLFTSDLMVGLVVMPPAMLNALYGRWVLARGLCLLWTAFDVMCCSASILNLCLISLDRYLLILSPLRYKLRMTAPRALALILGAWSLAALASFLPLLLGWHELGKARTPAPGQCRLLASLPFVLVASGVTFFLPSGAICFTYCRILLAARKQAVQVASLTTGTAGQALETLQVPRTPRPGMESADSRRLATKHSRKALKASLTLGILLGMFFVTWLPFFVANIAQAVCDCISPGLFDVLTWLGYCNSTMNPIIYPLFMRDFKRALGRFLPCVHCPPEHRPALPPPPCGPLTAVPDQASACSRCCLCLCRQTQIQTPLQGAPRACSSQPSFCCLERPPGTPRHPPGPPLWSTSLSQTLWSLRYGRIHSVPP
Beta2, sequence (P07550 whole entry): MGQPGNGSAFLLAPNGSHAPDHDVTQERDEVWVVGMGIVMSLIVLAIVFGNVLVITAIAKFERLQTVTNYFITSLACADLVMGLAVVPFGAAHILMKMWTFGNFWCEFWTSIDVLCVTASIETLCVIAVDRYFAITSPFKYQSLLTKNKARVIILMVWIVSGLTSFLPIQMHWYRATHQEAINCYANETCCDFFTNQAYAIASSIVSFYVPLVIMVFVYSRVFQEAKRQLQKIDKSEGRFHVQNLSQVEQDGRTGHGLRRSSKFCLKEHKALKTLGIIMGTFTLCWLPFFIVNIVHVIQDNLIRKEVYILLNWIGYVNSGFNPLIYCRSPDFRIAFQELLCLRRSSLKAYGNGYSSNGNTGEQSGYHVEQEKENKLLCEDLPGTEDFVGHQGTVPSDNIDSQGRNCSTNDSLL

Row | SMILES | Ki (D2) [nM] | Ki (5HT1B) [nM] | Ki (5HT1E) [nM] | Ki (D4 receptor) [nM] | Ki (5HT1D) [nM] | Ki (D1) [nM] | Ki (Alpha1A) [nM] | Ki (5-HT2A receptor) [nM] | Ki (D3) [nM] | Ki (5HT1A) [nM] | Ki (5HT2C) [nM] | Ki (Alpha2A) [nM] | other results
1 | O=C1NCN(c2ccccc2)C12CCN(CCCC(c1ccc(F)cc1)c1ccc(F)cc1)CC2 [Fluspirilene] | < 1 | > 1000 | > 1000 | 1 to 10 | > 1000 | – | – | – | – | – | – | – | –
2 | O=C1NCCN1CCN1CCC(c2cn(-c3ccc(F)cc3)c3ccc(Cl)cc23)CC1 [Sertindole] | – | 10 to 100 | – | – | 10 to 100 | 10 to 100 | < 1 | – | – | – | – | – | –
3 | Cc1nc2c(C)cccn2c(=O)c1CCN1CCC(c2noc3cc(F)ccc23)CC1 [Ocaperidone] | < 1 | – | – | 1 to 10 | – | 10 to 100 | < 1 | < 1 | 1 to 10 | 10 to 100 | 10 to 100 | – | –
4 | CCNC(=O)N1CCN(CCCC(c2ccc(F)cc2)c2ccc(F)cc2)CC1 [Amperozide] | 100 to 1000 | – | – | – | – | 100 to 1000 | 10 to 100 | 1 to 10 | 100 to 1000 | > 1000 | > 1000 | > 1000 | –
5 | Fc1cccc2c1O[C@H]1CNC[C@@H]1O2 [Fluparoxan] | – | – | – | – | – | – | 100 to 1000 | – | – | 100 to 1000 | – | 1 to 10 | Ki (Alpha2B): 1 to 10 nM; Ki (Alpha2C): 1 to 10 nM
6 | O=C(CC1CCN(CCOc2cccc3c2OCCO3)C1)c1ccc(F)cc1 (stereo not drawn) [S16924] | – | – | – | – | – | – | – | – | – | – | – | – | pKi 5HT7rat (5HT7rat): 7-8; pKi 5HT2B (5HT2B): 8-9; pKi 5-HT2A (5-HT2A receptor): >9; pKi Beta2 (Beta2): <6; pKi D3 (D3): 7-8; pKi 5HT1A (5HT1A): 8-9; pKi 5HT6rat (5HT6rat): 7-8; pKi D2 (D2): 7-8; pKi 5HT2C (5HT2C): 7-8; pKi Alpha2B (Alpha2B): 7-8; pKi Alpha2C (Alpha2C): 6-7; pKi Alpha1A (Alpha1A): 8-9; pKi Beta1 (Beta1): <6; pKi Alpha2A (Alpha2A): 6-7
7 | CN(C)CCOC1=Cc2ccccc2Sc2ccc(Cl)cc21 [Zotepine] | – | 10 to 100 | 100 to 1000 | – | 10 to 100 | – | – | – | – | – | – | – | –
8 | CN1CC2c3ccccc3Oc3ccc(Cl)cc3C2C1 (stereo not drawn) [ORG5222] | – | 1 to 10 | 10 to 100 | 1 to 10 | 1 to 10 | 1 to 10 | < 1 | < 1 | 1 to 10 | 1 to 10 | < 1 | 1 to 10 | Ki (5HT7rat): < 1 nM; Ki (Beta2): > 1000 nM; Ki (5HT6rat; read-out: pKi 5HT6rat (converted)): < 1 nM; Ki (Alpha2C): 10 to 100 nM; Ki (Beta1): > 1000 nM
